Among the data in US20240124422A1, “MUTANT PI3K-ALPHA INHIBITORS AND THEIR USE AS PHARMACEUTICALS” (Prelude Therapeutics Incorporated, priority 2022, published 2024) are IC50 values, retold here.

Broadly, the IC50 is the midpoint of a concentration-inhibition curve.

One assay concerns phosphorylation of AKT on Ser473 as a readout of the PI3K pathway in T-47D (heterozygous PIK3CA H1047R) cells. Description: PI3K pathway activation assay, pAKT Ser473 HTRF, T-47D cells. Conditions: Homo sapiens, T47D, 2 h, two hours of treatment. In kind it is cell-based. The procedure:
The inhibitory activity of compounds was evaluated by measuring phosphorylation of AKT on Ser473 as a readout of the PI3K pathway using HTRF (CisBio catalog number: 64AKSPE). These studies were conducted in the T-47D (heterozygous PIK3CA H1047R) and SKBR3 (PIK3CA WT) cell lines. Cells were maintained in a 37° C. incubator at 5% CO2 in the following media: T-47D: RPMI 1640, ATCC© Modification (Gibco, A10491-01) supplemented with 10% v/v FBS (Gibco, 26140-079), 1% penicillin streptomycin (Gibco, 15140-122), and 7.4 ug/mL insulin (MilliporeSigma, I9278); SKBR3: McCoy's 5a (Modified) Medium (Gibco, 16600-082) supplemented with 10% v/v FBS (Gibco, 26140-079). Cells were seeded in 384-well plates at a density of 4,000 cells/well. Compounds dissolved in DMSO were added using a digital dispense (D300E, Tecan) 10-point serial dilution. After two hours of treatment, cells were lysed for thirty minutes and then incubated with detection reagents per HTRF kit material and manufacturer's instructions. Fluorescence signal was measured with a multimode plate reader (Envision 2105, Perkin Elmer). Fluorescent signal was normalized to background and DMSO controls to obtain percent inhibition/activity for each compound.
(In general: TR-FRET usually uses a lanthanide donor and a delayed reading to cut background.)
Compound `Cc1cc(C(C)Nc2ccccc2C(=O)O)c2nc(N3CCC(O)CC3)n(C)c(=O)c2c1` (stereo not drawn) [Example 57, 2-((1-(2-(4-hydroxypiperidin-1-yl)-3,6-dimethyl-4-oxo-3,4-dihydroquinazolin-8-yl)ethyl)amino)benzoic acid] had an IC50 of 500 to 10000 nM.

The compound `Cc1cc(C(C)Nc2ccccc2C(=O)O)c2nc(N3CC4CC3CN4C(=O)OC(C)(C)C)n(C)c(=O)c2c1` (stereo not drawn) [Example 65, 2-((1-(2-(5-(tert-Butoxycarbonyl)-2,5-diazabicyclo[2.2.1]heptan-2-yl)-3,6-dimethyl-4-oxo-3,4-dihydroquinazolin-8-yl)ethyl)amino)benzoic acid] came in with a concentration for half-maximal inhibition (IC50) of 500 to 10000 nM.

On to `CC(=O)N1C[C@H]2CN(c3nc4c(C(C)Nc5ccccc5C(=O)O)cc(C)cc4c(=O)n3C)C[C@@H]2C1` (stereo partly drawn) [Example 66, 2-((1-(2-((3aR,6aR)-5-Acetylhexahydropyrrolo[3,4-c]pyrrol-2(1H)-yl)-3,6-dimethyl-4-oxo-3,4-dihydroquinazolin-8-yl)ethyl)amino)benzoic acid], for which the concentration for half-maximal inhibition (IC50) was in the range of 500 to 10000 nM.

On to `C=CC(=O)N1CCCC1c1nc2c(C(C)Nc3ccccc3C(=O)O)cc(C)cc2c(=O)n1C` (stereo not drawn) [Example 71, 2-[1-[3,6-Dimethyl-4-oxo-2-(1-prop-2-enoylpyrrolidin-2-yl)quinazolin-8-yl]ethylamino]benzoic acid], for which the IC50 is 500 to 10000 nM.

`CC(Nc1ccccc1C(=O)O)c1cccc2c(=O)n(C)c(N3Cc4ccccc4C3)nc12` (stereo not drawn) [Example 72, 2-((1-(2-(Isoindolin-2-yl)-3-methyl-4-oxo-3,4-dihydroquinazolin-8-yl)ethyl)amino)benzoic acid] registered a half-maximal inhibitory concentration (IC50) of 500 to 10000 nM.

As for `Cc1cc(C(C)Nc2ccccc2C(=O)O)c2nc(C3CCCN3S(=O)(=O)F)n(C)c(=O)c2c1` (stereo not drawn) [Example 73, 2-[1-[2-(1-Fluorosulfonylpyrrolidin-2-yl)-3,6-dimethyl-4-oxoquinazolin-8-yl]ethylamino]benzoic acid], the IC50 lay in the range of 500 to 10000 nM.

`CC(Nc1ccccc1C(=O)O)c1cc(Br)cc2c(=O)n(C)c(N3CCC(F)(F)CC3)nc12` (stereo not drawn) [Example 74, 2-((1-(6-Bromo-2-(4,4-difluoropiperidin-1-yl)-3-methyl-4-oxo-3,4-dihydroquinazolin-8-yl)ethyl)amino)benzoic acid]: the IC50 was under 500 nM.

`Cc1cc(C(C)Nc2ccccc2C(=O)O)c2nc(N3Cc4ccccc4C3)n([C@H]3C[C@H](C#N)C3)c(=O)c2c1` (stereo partly drawn) [Example 75, 2-((1-(3-((1r,3r)-3-Cyanocyclobutyl)-2-(isoindolin-2-yl)-6-methyl-4-oxo-3,4-dihydroquinazolin-8-yl)ethyl)amino)benzoic acid] returned an IC50 of 500 to 10000 nM.

In the case of `CC(Nc1ccccc1C(=O)O)c1cc(C2CC2)cc2c(=O)n(C)c(N3CC4CC4C3)nc12` (stereo not drawn) [Example 76, 2-((1-(2-(3-Azabicyclo[3.1.0]hexan-3-yl)-6-cyclopropyl-3-methyl-4-oxo-3,4-dihydroquinazolin-8-yl)ethyl)amino)benzoic acid], the IC50 is 500 to 10000 nM.

For `COc1cc(C(C)Nc2ccccc2C(=O)O)c2nc(N3CC4CC4C3)n(C)c(=O)c2c1` (stereo not drawn) [Example 77, 2-((1-(2-(3-azabicyclo[3.1.0]hexan-3-yl)-6-methoxy-3-methyl-4-oxo-3,4-dihydroquinazolin-8-yl)ethyl)amino)benzoic acid], the IC50 was 500 to 10000 nM.

On to `CCc1cc(C(C)Nc2ccccc2C(=O)O)c2nc(N3CC4CC4C3)n(C)c(=O)c2c1` (stereo not drawn) [Example 78, 2-((1-(2-(3-Azabicyclo[3.1.0]hexan-3-yl)-6-ethyl-3-methyl-4-oxo-3,4-dihydroquinazolin-8-yl)ethyl)amino)benzoic acid], for which the IC50 is 500 to 10000 nM.

Take `CC(Nc1ccccc1C(=O)O)c1cc(C(F)F)cc2c(=O)n(C)c(N3CC4CC4C3)nc12` (stereo not drawn) [Example 79, 2-((1-(2-(3-Azabicyclo[3.1.0]hexan-3-yl)-6-(difluoromethyl)-3-methyl-4-oxo-3,4-dihydroquinazolin-8-yl)ethyl)amino)benzoic acid]: the IC50 is 500 to 10000 nM.

Turning to `Cc1cc(C(C)Nc2ccc(C(F)(F)F)nc2C(=O)O)c2nc(N3CC4CC4C3)n(C)c(=O)c2c1` (stereo not drawn) [Example 80, 3-((1-(2-(3-azabicyclo[3.1.0]hexan-3-yl)-3,6-dimethyl-4-oxo-3,4-dihydro-quinazolin-8-yl)ethyl)amino)-6-(trifluoromethyl)picolinic acid], the IC50 is 500 to 10000 nM.

Compound `Cc1cc(C(C)Nc2ccccc2C(=O)O)c2nc(N3C[C@@H]4[C@H](C3)[C@H]4C(=O)N(C)C(C)C)n(C)c(=O)c2c1` (stereo partly drawn) [Example 81, 2-((1-(2-((1R,5S,6R)-6-(Isopropyl(methyl)carbamoyl)-3-azabicyclo[3.1.0]hexan-3-yl)-3,6-dimethyl-4-oxo-3,4-dihydroquinazolin-8-yl)ethyl)amino)benzoic acid] had an IC50 of under 500 nM.

The assay is the same for the next values; noted with them: two hours of treatment, read-out: T47D pAKT IC50.
Take `Cc1cc(C(C)Nc2ccccc2C(=O)O)c2nc(N3C[C@@H]4C(NC(=O)OCc5ccccc5)[C@@H]4C3)n(C)c(=O)c2c1` (stereo partly drawn) [Example 59, 2-((1-(2-((1R,5S,6s)-6-(((benzyloxy)carbonyl)amino)-3-azabicyclo[3.1.0]hexan-3-yl)-3,6-dimethyl-4-oxo-3,4-dihydroquinazolin-8-yl)ethyl)amino)benzoic acid]: the IC50 was 500 to 10000 nM.

With `Cc1cc(C(C)Nc2ccccc2C(=O)O)c2nc(N3C[C@@H]4C(NC(=O)OCC(F)(F)F)[C@@H]4C3)n(C)c(=O)c2c1` (stereo partly drawn) [Example 60, 2-((1-(3,6-dimethyl-4-oxo-2-((1R,5S,6s)-6-(((2,2,2-trifluoroethoxy)carbonyl)amino)-3-azabicyclo[3.1.0]hexan-3-yl)-3,4-dihydroquinazolin-8-yl)ethyl)amino)benzoic acid], the IC50 is 500 to 10000 nM.

With `Cc1cc(C(C)Nc2ccccc2C(=O)O)c2nc(N3C[C@@H]4C(NC(=O)OCCN5CCOCC5)[C@@H]4C3)n(C)c(=O)c2c1` (stereo partly drawn) [Example 61, 2-((1-(3,6-dimethyl-2-((1R,5S,6s)-6-(((2-morpholinoethoxy)carbonyl)amino)-3-azabicyclo[3.1.0]hexan-3-yl)-4-oxo-3,4-dihydroquinazolin-8-yl)ethyl)amino)benzoic acid], the IC50 was in the range of 500 to 10000 nM.

`COc1ccc(OC(=O)NC2[C@H]3CN(c4nc5c(C(C)Nc6ccccc6C(=O)O)cc(C)cc5c(=O)n4C)C[C@@H]23)cc1` (stereo partly drawn) [Example 62, 2-((1-(2-((1R,5S,6s)-6-(((4-methoxyphenoxy)carbonyl)amino)-3-azabicyclo[3.1.0]hexan-3-yl)-3,6-dimethyl-4-oxo-3,4-dihydroquinazolin-8-yl)ethyl)amino)benzoic acid]: the half-inhibitory concentration (IC50) was in the range of 500 to 10000 nM.

For the compound `Cc1cc(C(C)Nc2ccccc2C(=O)O)c2nc(N3C[C@@H]4C(NC(=O)OC5CC5)[C@@H]4C3)n(C)c(=O)c2c1` (stereo partly drawn) [Example 63, 2-((1-(2-((1R,5S,6s)-6-((cyclopropoxycarbonyl)amino)-3-azabicyclo[3.1.0]hexan-3-yl)-3,6-dimethyl-4-oxo-3,4-dihydroquinazolin-8-yl)ethyl)amino)benzoic acid], the IC50 lay within 500 to 10000 nM.

For `Cc1cc(C(C)Nc2ccccc2C(=O)O)c2nc(N3C[C@@H]4[C@H](C3)[C@H]4NC(=O)OCC3CCCO3)n(C)c(=O)c2c1` (stereo partly drawn) [Example 64, 2-((1-(3,6-dimethyl-4-oxo-2-((1R,5S,6s)-6-((((tetrahydrofuran-2-yl)methoxy)carbonyl)amino)-3-azabicyclo[3.1.0]hexan-3-yl)-3,4-dihydroquinazolin-8-yl)ethyl)amino)benzoic acid], the IC50 lay within 500 to 10000 nM.

As for `CON(C)C(=O)C1[C@H]2CN(c3nc4c(C(C)Nc5ccccc5C(=O)O)cc(C)cc4c(=O)n3C)C[C@@H]12` (stereo partly drawn) [Example 83, 2-((1-(2-((1R,5S,6R)-6-(Methoxy(methyl)carbamoyl)-3-azabicyclo[3.1.0]hexan-3-yl)-3,6-dimethyl-4-oxo-3,4-dihydroquinazolin-8-yl)ethyl)amino)benzoic acid], the IC50 is under 500 nM.

As for `Cc1cc(C(C)Nc2ccccc2C(=O)O)c2nc(N3C[C@@H]4[C@H](C3)[C@H]4C(=O)N(C)CC(F)F)n(C)c(=O)c2c1` (stereo partly drawn) [Example 84, 2-((1-(2-((1R,5S,6R)-6-((2,2-Difluoroethyl)(methyl)carbamoyl)-3-azabicyclo[3.1.0]hexan-3-yl)-3,6-dimethyl-4-oxo-3,4-dihydroquinazolin-8-yl)ethyl)amino)benzoic acid], the concentration for half-maximal inhibition (IC50) is under 500 nM.

Consider `Cc1cc(C(C)Nc2ccccc2C(=O)O)c2nc(N3C[C@@H]4C(C(=O)N5CCC[C@@H]5C)[C@@H]4C3)n(C)c(=O)c2c1` (stereo partly drawn) [Example 85, 2-((1-(3,6-Dimethyl-2-((1R,5S,6R)-6-((S)-2-methylpyrrolidine-1-carbonyl)-3-azabicyclo[3.1.0]hexan-3-yl)-4-oxo-3,4-dihydroquinazolin-8-yl)ethyl)amino)benzoic acid], for which the half-inhibitory concentration (IC50) is under 500 nM.

For the compound `Cc1cc(C(C)Nc2ccccc2C(=O)O)c2nc(N3C[C@@H]4[C@H](C3)[C@H]4C(=O)N3CCOC[C@@H]3C)n(C)c(=O)c2c1` (stereo partly drawn) [Example 86, 2-((1-(3,6-Dimethyl-2-((1R,5S,6R)-6-((S)-3-methylmorpholine-4-carbonyl)-3-azabicyclo[3.1.0]hexan-3-yl)-4-oxo-3,4-dihydroquinazolin-8-yl)ethyl)amino)benzoic acid], the IC50 was under 500 nM.
